One block for each compound: values may come before it.
Legend:
Type in all cases: in vivo
normotensive dogs [1] = experiment: Intraocular pressure (IOP) decrease in normotensive dogs; settings: once daily for 5 days
Description: (§1) (Z)-7-[(1R,2S,3R,5R)-5-Chloro-2-(3,5-dichloro-phenoxymethyl)-3-hydroxy-cyclopentyl]-hept-5-enoic acid 2-hydroxy-ethyl ester (1) was tested in normotensive dogs at 0.1%, dosing once daily for 5 days. The maximum intraocular pressure (IOP) decrease from baseline was 6.6 mmHg (40%) at 78 h; the maximum ocular surface hyperemia (OSH) score was 0.9 at 50 h. This compound was also tested in laser-induced hypertensive monkeys, using one single day dose. At 0.1%, the maximum IOP decrease from baseline was 12.5 mmHg (33%) at […]
(§2) (Z)-7-[(1R,2S,3R,5R)-5-Chloro-2-(3,5-dichloro-phenoxymethyl)-3-hydroxy-cyclopentyl]-hept-5-enoic acid 2-morpholin-4-yl-ethyl ester (2) was tested in normotensive dogs at 0.1%, dosing once daily for 5 days. The maximum intraocular pressure (IOP) decrease from baseline was 5.1 mmHg (34%) at 78 h; the maximum ocular surface hyperemia (OSH) score was 0.9 at 30 h. This compound was also tested in laser-induced hypertensive monkeys, using one single day dose. At 0.1%, the maximum IOP decrease from baseline was 11.9 mmHg (32%) at 6 h.
(§3) (Z)-7-[(1R,2S,3R,5R)-5-Chloro-2-(3,5-dichloro-phenoxymethyl)-3-hydroxy-cyclopentyl]-hept-5-enoic acid was tested at multiple concentrations in normotensive dogs, dosing once daily for 5 days. At 0.05%, the maximum IOP decrease from baseline was 4.3 mmHg (30%) at 6 h; the maximum OSH score was 0.6 at 6 h. At 0.1%, the maximum IOP decrease from baseline was 4.8 mmHg (34%) at 102 h; the maximum OSH score was 1.3 at 6 h. This compound was also tested in laser-induced hypertensive monkeys, using one single day dose. At 0.1%, the maximum IOP decrease from baseline was 6 mmHg (19%) at 6 h.
(§4) (Z)-7-[(1R,2S,3R,5R)-5-Chloro-2-(3,5-dichloro-phenoxymethyl)-3-hydroxy-cyclopentyl]-hept-5-enoic acid isopropyl ester was tested at multiple concentrations in normotensive dogs, dosing once daily for 5 days. At 0.01%, the maximum intraocular pressure (IOP) decrease from baseline was 1.1 mmHg (7%) at 2 h; the maximum ocular surface hyperemia (OSH) score was 0.6 at 74 h. At 0.05%, the maximum intraocular pressure (IOP) decrease from baseline was 2.8 mmHg (18%) at 6 h; the maximum ocular surface hyperemia (OSH) score was 0.6 at 74 h. This compound was also tested in laser-induced hypertensive monkeys, using one single day dose. At 0.01%, the maximum IOP decrease from baseline was 6.8 mmHg (18%) at 6 h. At 0.05%, the maximum IOP decrease from baseline was 6 mmHg (16%) at 2 h.

[2] = tested on: laser-induced hypertensive monkeys; experiment: IOP decrease in laser-induced hypertensive monkeys; settings: one single day dose
Description: as §1, §2, §3, §4

normotensive dogs [3] = experiment: Ocular surface hyperemia (OSH) score in normotensive dogs; settings: once daily for 5 days; for maximum OSH score: maximum at 6 h
Description: as §1, §2, §3, §4

maximum ocular surface hyperemia (OSH) score (normotensive dogs [3]; 0.01%, maximum at 74 h): 0.6 | maximum ocular surface hyperemia (OSH) score (normotensive dogs [3]; 0.05%, maximum at 74 h): 0.6
Structure (SMILES): CC(C)OC(=O)CCC/C=C\C[C@@H]1[C@@H](COc2cc(Cl)cc(Cl)c2)[C@H](O)C[C@H]1Cl [(Z)-7-[(1R,2S,3R,5R)-5-Chloro-2-(3,5-dichloro-phenoxymethyl)-3-hydroxy-cyclopentyl]-hept-5-enoic acid isopropyl ester]
maximum intraocular pressure (IOP) decrease from baseline (normotensive dogs [1]; 0.01%, maximum at 2 h): 1.1 mmHg | maximum intraocular pressure (IOP) decrease from baseline (percent) (normotensive dogs [1]; 0.01%, maximum at 2 h): 7% | maximum IOP decrease from baseline (normotensive dogs [1]; 0.05%, maximum at 6 h): 2.8 mmHg | maximum IOP decrease from baseline (percent) (normotensive dogs [1]; 0.05%, maximum at 6 h): 18% | maximum IOP decrease from baseline ([2]; 0.01%, maximum at 6 h): 6.8 mmHg | maximum IOP decrease from baseline (percent) ([2]; 0.01%, maximum at 6 h): 18% | maximum IOP decrease from baseline ([2]; 0.05%, maximum at 2 h): 6 mmHg | maximum IOP decrease from baseline (percent) ([2]; 0.05%, maximum at 2 h): 16%

maximum OSH score (normotensive dogs [3]; 0.05%): 0.6 | maximum OSH score (normotensive dogs [3]; 0.1%): 1.3
Structure (SMILES): O=C(O)CCC/C=C\C[C@@H]1[C@@H](COc2cc(Cl)cc(Cl)c2)[C@H](O)C[C@H]1Cl [(Z)-7-[(1R,2S,3R,5R)-5-Chloro-2-(3,5-dichloro-phenoxymethyl)-3-hydroxy-cyclopentyl]-hept-5-enoic acid]
maximum IOP decrease from baseline (normotensive dogs [1]; 0.05%, maximum at 6 h): 4.3 mmHg | maximum IOP decrease from baseline (percent) (normotensive dogs [1]; 0.05%, maximum at 6 h): 30% | maximum IOP decrease from baseline (normotensive dogs [1]; 0.1%, maximum at 102 h): 4.8 mmHg | maximum IOP decrease from baseline (percent) (normotensive dogs [1]; 0.1%, maximum at 102 h): 34% | maximum IOP decrease from baseline ([2]; 0.1%, maximum at 6 h): 6 mmHg | maximum IOP decrease from baseline (percent) ([2]; 0.1%, maximum at 6 h): 19%

maximum ocular surface hyperemia (OSH) score (normotensive dogs [3]; 0.1%, maximum at 50 h): 0.9
Structure (SMILES): O=C(CCC/C=C\C[C@@H]1[C@@H](COc2cc(Cl)cc(Cl)c2)[C@H](O)C[C@H]1Cl)OCCO [Compound 1, (Z)-7-[(1R,2S,3R,5R)-5-Chloro-2-(3,5-dichloro-phenoxymethyl)-3-hydroxy-cyclopentyl]-hept-5-enoic acid 2-hydroxy-ethyl ester]
maximum intraocular pressure (IOP) decrease from baseline (normotensive dogs [1]; 0.1%, maximum at 78 h): 6.6 mmHg | maximum intraocular pressure (IOP) decrease from baseline (percent) (normotensive dogs [1]; 0.1%, maximum at 78 h): 40% | maximum IOP decrease from baseline ([2]; 0.1%, maximum at 4): 12.5 mmHg | maximum IOP decrease from baseline (percent) ([2]; 0.1%, maximum at 4): 33%

maximum ocular surface hyperemia (OSH) score (normotensive dogs [3]; 0.1%, maximum at 30 h): 0.9
Structure (SMILES): O=C(CCC/C=C\C[C@@H]1[C@@H](COc2cc(Cl)cc(Cl)c2)[C@H](O)C[C@H]1Cl)OCCN1CCOCC1 [Compound 2, (Z)-7-[(1R,2S,3R,5R)-5-Chloro-2-(3,5-dichloro-phenoxymethyl)-3-hydroxy-cyclopentyl]-hept-5-enoic acid 2-morpholin-4-yl-ethyl ester]
maximum intraocular pressure (IOP) decrease from baseline (normotensive dogs [1]; 0.1%, maximum at 78 h): 5.1 mmHg | maximum intraocular pressure (IOP) decrease from baseline (percent) (normotensive dogs [1]; 0.1%, maximum at 78 h): 34% | maximum IOP decrease from baseline ([2]; 0.1%, maximum at 6 h): 11.9 mmHg | maximum IOP decrease from baseline (percent) ([2]; 0.1%, maximum at 6 h): 32%

Source: US7507817B2, “Prostaglandin prodrugs” (Allergan, Inc., priority 2006, dated 2009)
